Reference: patent US12447170B2, “Use of maribavir in treatment regimens” (priority 2021, dated 2025)
Entries after “also recorded” stand apart in the source; their conditions may differ.

How the values were obtained:
clinical = details: human, in vivo
[1] = PBPK simulation of maribavir with ketoconazole (CYP3A4 inhibitor); set-up: species or system human
Experimental: (§1) A comparison of observed and predicted plasma concentrations of maribavir following a single oral dose of 400 mg administered in the absence of ketoconazole (a CYP3A4 inhibitor) and 1 hour after a single 400 mg dose of ketoconazole to healthy subjects was performed.

[2] = Phase 2 studies for treatment of CMV infection/diseases: safety/tolerability; assay type: in vivo, human; details: doses up to 1200 mg BID
[3] = Observed clinical interaction of maribavir with ketoconazole in healthy subjects; assay type: in vivo, human; details: for AUC(0-inf) / Cmax: human, in vivo, 400 mg
Experimental: as §1

[4] = PBPK simulation of maribavir with rifampicin; set-up: species or system human
Experimental: A comparison of observed and predicted plasma concentrations of maribavir following multiple oral doses of 400 mg administered in the absence of rifampicin and during concurrent treatment with rifampicin was performed. Subjects took maribavir 400 mg BID on Days 1-3 (5 doses), then rifampicin 600 mg QD on Days 4 through 12, followed by both maribavir 400 mg (BID) and rifampicin 600 mg QD on Days 13 and 14, with final doses of maribavir and rifampicin on the morning of Day 15. […]

CYP2C9 = CYP2C9 (Homo sapiens, UniProt P11712); assay: Reversible CYP inhibition in human liver microsomes (HLM); assay type: in vitro ADME; set-up: from tissue; host or cells: human liver microsomes
Experimental: (§2) HLM were used to evaluate maribavir's half maximal inhibitory concentration (IC50) on inhibition of activities of nine CYP isoforms. Probe substrates were phenacetin (CYP1A2), coumarin (CYP2A6), bupropion (CYP2B6), paclitaxel (CYP2C8), tolbutamide (CYP2C9), (S)-mephenytoin (CYP2C19), dextromethorphan (CYP2D6), clorzoxazone (CYP2E1), and midazolam and testosterone (CYP3A4).
(§3) CYP activities with 0, 0.1, 0.3, 1, 3, 10, 30, and 100 μM of maribavir were evaluated.

CYP1A2 = biological target: T1, CYP1A2 (Homo sapiens, UniProt P05177); assay: as above; assay type: in vitro ADME; set-up: from tissue; host or cells: human liver microsomes
T1 sequence (P05177 1-516): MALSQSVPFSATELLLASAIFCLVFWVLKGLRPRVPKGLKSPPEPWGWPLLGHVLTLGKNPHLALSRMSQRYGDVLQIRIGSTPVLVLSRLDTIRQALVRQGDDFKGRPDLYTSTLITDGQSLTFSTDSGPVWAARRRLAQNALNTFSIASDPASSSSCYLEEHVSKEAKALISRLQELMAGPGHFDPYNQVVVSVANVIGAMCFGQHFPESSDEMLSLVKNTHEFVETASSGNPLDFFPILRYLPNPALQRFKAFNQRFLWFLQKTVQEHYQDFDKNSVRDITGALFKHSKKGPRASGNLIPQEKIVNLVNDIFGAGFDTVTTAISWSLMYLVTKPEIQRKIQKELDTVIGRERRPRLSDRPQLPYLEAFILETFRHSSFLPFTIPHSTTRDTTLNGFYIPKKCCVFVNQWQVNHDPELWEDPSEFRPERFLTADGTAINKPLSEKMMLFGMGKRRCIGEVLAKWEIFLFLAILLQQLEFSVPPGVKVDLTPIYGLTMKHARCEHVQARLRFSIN
Experimental: as §2, §3

CYP2C19 = CYP2C19 (Homo sapiens, UniProt P33261); assay: as above; assay type: in vitro ADME; set-up: from tissue; host or cells: human liver microsomes
Experimental: as §2, §3

CYP2C8 = biological target: T2, CYP2C8 (Homo sapiens, UniProt P10632); assay: as above; assay type: in vitro ADME; set-up: from tissue; host or cells: human liver microsomes; details: up to 100 μM
T2 sequence (P10632 1-490): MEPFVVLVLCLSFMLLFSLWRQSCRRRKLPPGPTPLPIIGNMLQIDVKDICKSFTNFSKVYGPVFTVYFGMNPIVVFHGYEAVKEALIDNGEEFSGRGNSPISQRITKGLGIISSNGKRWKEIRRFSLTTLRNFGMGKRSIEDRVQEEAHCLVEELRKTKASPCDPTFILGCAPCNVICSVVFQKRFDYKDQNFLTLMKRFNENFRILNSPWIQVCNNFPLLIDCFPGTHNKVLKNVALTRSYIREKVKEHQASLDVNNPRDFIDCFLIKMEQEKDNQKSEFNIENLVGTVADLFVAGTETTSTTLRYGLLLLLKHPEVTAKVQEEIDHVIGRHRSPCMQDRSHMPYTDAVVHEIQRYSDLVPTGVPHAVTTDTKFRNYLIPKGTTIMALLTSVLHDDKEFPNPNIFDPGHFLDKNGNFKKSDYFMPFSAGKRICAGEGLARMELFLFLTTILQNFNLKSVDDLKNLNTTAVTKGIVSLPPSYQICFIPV
Experimental: as §2, §3

CYP2D6 = CYP2D6 (Homo sapiens, UniProt P10635); assay: as above; assay type: in vitro ADME; set-up: from tissue; host or cells: human liver microsomes; details: up to 100 μM
Experimental: as §2, §3

[5] = maribavir 400 mg single dose 1 hour after ketoconazole 400 mg
[6] = maribavir 400 mg BID + rifampicin 600 mg QD
[7] = maribavir 400 mg BID with/without rifampicin 600 mg QD

CYP2D6, sequence (P10635 whole entry): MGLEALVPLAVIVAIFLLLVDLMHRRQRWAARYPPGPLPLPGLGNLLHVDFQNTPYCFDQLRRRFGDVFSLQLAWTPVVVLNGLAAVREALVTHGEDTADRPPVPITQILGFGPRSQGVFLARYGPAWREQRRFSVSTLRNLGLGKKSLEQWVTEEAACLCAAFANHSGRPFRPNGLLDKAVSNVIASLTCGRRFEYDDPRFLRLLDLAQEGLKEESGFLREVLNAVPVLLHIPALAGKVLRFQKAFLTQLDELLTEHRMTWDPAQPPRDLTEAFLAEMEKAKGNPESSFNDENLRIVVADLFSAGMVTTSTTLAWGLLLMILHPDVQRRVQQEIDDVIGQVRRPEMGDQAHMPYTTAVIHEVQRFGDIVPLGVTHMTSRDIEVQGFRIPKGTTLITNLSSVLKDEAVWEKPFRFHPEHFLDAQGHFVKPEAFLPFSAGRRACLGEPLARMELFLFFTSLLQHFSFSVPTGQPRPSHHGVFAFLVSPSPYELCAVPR
CYP2C9, sequence (P11712 whole entry, canonical isoform): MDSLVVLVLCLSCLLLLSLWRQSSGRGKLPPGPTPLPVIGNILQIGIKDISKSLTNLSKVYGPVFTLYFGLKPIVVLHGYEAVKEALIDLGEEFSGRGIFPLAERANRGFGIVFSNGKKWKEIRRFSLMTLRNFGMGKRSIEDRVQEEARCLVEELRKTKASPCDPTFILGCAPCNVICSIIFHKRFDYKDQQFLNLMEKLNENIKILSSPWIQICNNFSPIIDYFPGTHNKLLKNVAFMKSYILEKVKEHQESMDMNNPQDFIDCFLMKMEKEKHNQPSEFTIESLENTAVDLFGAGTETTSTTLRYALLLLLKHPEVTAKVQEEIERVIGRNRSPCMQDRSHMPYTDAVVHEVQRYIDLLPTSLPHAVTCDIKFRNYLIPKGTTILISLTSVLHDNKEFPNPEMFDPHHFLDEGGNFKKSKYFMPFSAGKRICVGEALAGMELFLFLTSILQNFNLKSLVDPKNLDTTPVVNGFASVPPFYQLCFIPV
CYP2C19, sequence (P33261 whole entry): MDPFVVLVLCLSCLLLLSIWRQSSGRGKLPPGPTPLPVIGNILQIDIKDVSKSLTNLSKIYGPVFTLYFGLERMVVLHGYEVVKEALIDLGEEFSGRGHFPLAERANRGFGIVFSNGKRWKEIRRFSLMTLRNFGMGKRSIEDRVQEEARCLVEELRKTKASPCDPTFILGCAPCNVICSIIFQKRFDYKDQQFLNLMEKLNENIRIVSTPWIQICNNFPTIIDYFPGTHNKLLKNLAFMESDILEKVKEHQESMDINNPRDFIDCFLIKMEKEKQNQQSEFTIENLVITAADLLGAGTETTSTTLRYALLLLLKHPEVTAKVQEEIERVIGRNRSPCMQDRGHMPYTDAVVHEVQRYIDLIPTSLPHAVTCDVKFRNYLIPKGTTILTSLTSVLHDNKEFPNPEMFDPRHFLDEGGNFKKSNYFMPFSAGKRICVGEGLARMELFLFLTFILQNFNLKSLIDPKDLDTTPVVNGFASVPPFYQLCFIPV

CC(C)Nc1nc2cc(Cl)c(Cl)cc2n1[C@H]1O[C@@H](CO)[C@H](O)[C@@H]1O [maribavir, (2S,3S,4R,5S)-2-(5,6-dichloro-2-(isopropylamino)-1H-benzo[d]imidazol-1-yl)-5-(hydroxymethyl)tetrahydrofuran-3,4-diol]
half-life (clinical): 5 to 7 h | CL renal (clinical; po): 0.85 mL/min | effect of crushing the tablet or antacids on bioavailability (clinical; po): wasn't affected | effect of food on exposure (clinical; po): unaffected | time to peak concentrations (clinical; po): 1 to 3 h | AUC(0-∞), GEOMEAN RATIO PREDICTED/OBSERVED [1, 5]: 0.77 | AUC(0-∞), MEAN RATIO PREDICTED/OBSERVED [1, 5]: 0.78 | Cmax, GEOMEAN RATIO PREDICTED/OBSERVED [1, 5]: 0.65 | Cmax, MEAN RATIO PREDICTED/OBSERVED [1, 5]: 0.66 | Ratio AUC(0-∞), GEOMEAN RATIO PREDICTED/OBSERVED ([1]; with/without ketoconazole): 1.00 | Ratio AUC(0-∞), MEAN RATIO PREDICTED/OBSERVED ([1]; with/without ketoconazole): 0.99 | Ratio Cmax, GEOMEAN RATIO PREDICTED/OBSERVED ([1]; with/without ketoconazole): 1.06 | Ratio Cmax, MEAN RATIO PREDICTED/OBSERVED ([1]; with/without ketoconazole): 1.05 | safety/tolerability profile [2]: no limiting toxicity | AUC(0-inf) ([3]; observed Geometric mean): 183 µg·h/mL | AUC(0-inf) ([3]; observed Mean): 194 µg·h/mL | Cmax ([3]; observed Geometric mean): 21300 ng/mL | Cmax ([3]; observed Mean): 21800 ng/mL | Ratio AUC(0-∞), observed Geometric mean ([3]; with/without ketoconazole): 1.53 | Ratio AUC(0-∞), observed Mean ([3]; with/without ketoconazole): 1.55 | Ratio Cmax, observed Geometric mean ([3]; with/without ketoconazole): 1.10 | Ratio Cmax, observed Mean ([3]; with/without ketoconazole): 1.12 | AUC(0-12 h), RATIO GEOMETRIC MEAN PREDICTED/OBSERVED [4, 6]: 0.88 | AUC(0-12 h), RATIO MEAN PREDICTED/OBSERVED [4, 6]: 1.00 | C12 h, RATIO GEOMETRIC MEAN PREDICTED/OBSERVED [4, 6]: 0.22 | C12 h, RATIO MEAN PREDICTED/OBSERVED [4, 6]: 0.83 | Cmax, RATIO GEOMETRIC MEAN PREDICTED/OBSERVED [4, 6]: 0.75 | Cmax, RATIO MEAN PREDICTED/OBSERVED [4, 6]: 0.78 | Ratio AUC(0-12 h), RATIO GEOMETRIC MEAN PREDICTED/OBSERVED [4, 7]: 0.85 | Ratio AUC(0-12 h), RATIO MEAN PREDICTED/OBSERVED [4, 7]: 0.91 | Ratio C12 h, RATIO GEOMETRIC MEAN PREDICTED/OBSERVED [4, 7]: 0.24 | Ratio C12 h, RATIO MEAN PREDICTED/OBSERVED [4, 7]: 0.56 | Ratio Cmax, RATIO GEOMETRIC MEAN PREDICTED/OBSERVED [4, 7]: 0.89 | Ratio Cmax, RATIO MEAN PREDICTED/OBSERVED [4, 7]: 0.87 | IC50 (CYP2C9): 18 µM | IC50 (CYP1A2): 40 µM | IC50 (CYP2C19): 35 µM | reversible inhibition of CYP2C8 (CYP2C8): not a reversible inhibitor; also recorded: no significant inhibition | reversible inhibition of CYP2D6 (CYP2D6): not a reversible inhibitor; also recorded: no significant inhibition
